Data published in article PMC5516028, “Molecular tools for GABAA receptors: High affinity ligands for β1-containing subtypes” (Scientific Reports, 2017).

Legend:
Assay type in all cases: cell-based
α1β1 GABAA receptors = biological target: T1, α1β1 GABAA receptors (Rattus norvegicus, UniProt P15431+P62813); assay: Two electrode voltage clamp in Xenopus laevis oocytes, α1β1
T1 construct: expressed in transfected cells; host or cells: Xenopus laevis oocytes, mRNA injected
Text: (§1) cDNA’s of rat GABAA receptor subunits α1, α4, β1, β2, β3 and γ2S were cloned as described. cDNAs of the rat subunits α2, α3 and α5 were gifts from P. Malherbe, that of α6 and γ1 were gifts of P. Seeburg and that of δ was a gift of C. Czajkowski. The mutants were constructed using the Q5 Site-Directed Mutagenesis Kit (New England Biolabs) following manufacturer’s instruction. We used the wild-type rat β3-pCI vector as template and the primers […] and […] resulting in a substitution of amino acid N41 (AAC) to R (AGG). We used the wild-type rat β1-pCI vector as template and the primers […] and […] resulting in a substitution of amino acid R41 (CGG) to N (AAC). The mutated subunits were confirmed by sequencing.
(§2) In vitro transcription of mRNA was based on the cDNA expression vectors encoding for rat GABAA receptor subunits α1–6, β1-3, γ1,2, δ and the two β mutants (β1R41N and β3N41R)[40]. After linearizing the cDNA vectors with appropriate restriction endonucleases, the cDNA was purified and concentrated with the DNA Clean and Contentrator ^TM Kit (Zymoresearch, Catalog No. D4005). Capped transcripts of the purified cDNA were produced using the mMESSAGE mMACHINE® T7 transcription kit (Ambion, TX, USA) and polyadenylated using the Ambion PolyA tailing kit (Ambion). After transcription and polyadenylation the RNA was purified with the MEGAclear ^TM Kit (Ambion, Catalog No. AM1908). The final RNA concentration was measured on NanoDrop® ND-1000 and finally diluted and stored in diethylpyrocarbonate-treated water at −80 °C. For the microinjection, the RNA of αβ receptor combinations was mixed at 1:1 ratio (which leads to αβ receptors that consist of predominantly 3 beta and 2 alpha subunits[27]), for αkβlγm (k = 1–3, l = 1, 3, m = 1, 2) receptors at 1:1:5 ratio, for αkβ3γ2 (k = 4–6) and αkβlδ (k = 1, 4 and 6, l = 1, 3) receptor combinations at 3:1:5 ratio.
(§3) Mature female Xenopus laevis (Nasco, WI) were anesthetized in a bath of ice-cold 0.17% Tricain (Ethyl-m-aminobenzoate, Sigma, MO) before decapitation in full accordance with all rules of the Austrian animal protection law (see http://www.ris.bka.gv.at/Dokumente/BgblAuth/BGBLA_2012_I_114/BGBLA_2012_I_114.pdf) and the Austrian animal experiment by-laws (see https://www.ris.bka.gv.at/Dokumente/BgblAuth/BGBLA_2012_II_522/BGBLA_2012_II_522.pdf) which implement the European Directive 2010/63/EU (see http://eur-lex.europa.eu/LexUriServ/LexUriServ.do?uri=OJ:L:2010:276:0033:0079:en:PDF) into the Austrian law (all information accessed on July 27, 2016). The frog’s ovaries were transferred to ND96 medium (96 mM NaCl, 2 mM KCl, 1 mM MgCl2, 5 mM HEPES; pH 7.5). Stage 5–6 oocytes with the follicle cell layer around them were roughly dissected with forceps into packages of 10–15 cells and washed in Ca^2+-free ND96 medium. Cells were then digested with collagenase (type IA, Sigma, NO, 1 mg/mL ND96) at 18 °C shaking at 30 rpm for 30–60 minutes and gently defolliculated with the aid of a glass pipette with appropriate tip diameter and a platinum loop. Defolliculated cells were stored at 18 °C for at least 6 hours in ND96 solution containing penicillin G (10000 IU/100 mL) and streptomycin (10 mg/100 mL) in order to preselect and exclude damaged cells from further treatment. Healthy defolliculated oocytes were injected with an aqueous solution of mRNA. A total of 4.5 ng of mRNA per oocyte was injected with a Nanoject II (Drummond). After injection of mRNA, oocytes were incubated at 18 °C (ND96 + antibiotic) for 2–3 days for αβ receptors and for 3–4 days for αβγ or αβδ receptors before recording. When cells were measured at later time points, oocytes were stored at +4 °C instead of 18 °C.
(§4) For electrophysiological recordings, oocytes were placed on a nylon-grid in a bath of Ca^2+-containing NDE solution medium [96 mM NaCl, 5 mM HEPES-NaOH (pH 7.5), 2 mM KCl, 1 mM MgCl2, 1.8 mM CaCl2].

α1β2 GABAA receptors = biological target: T2, α1β2 GABAA receptors (Rattus norvegicus, UniProt P62813+P63138); assay: Two electrode voltage clamp in Xenopus laevis oocytes, α1β2; settings: read-out: efficacy, % of control current (GABA EC3-5 = 100%), α1β2
T2 construct: expressed in transfected cells; host or cells: Xenopus laevis oocytes, mRNA injected
Text: as §1, §2, §3, §4

α1β3 GABAA receptors = biological target: T3, α1β3 GABAA receptors (Rattus norvegicus, UniProt P62813+P63079); assay: Two electrode voltage clamp in Xenopus laevis oocytes, α1β3; settings: read-out: efficacy, % of control current (GABA EC3-5 = 100%), α1β3
T3 construct: expressed in transfected cells; host or cells: Xenopus laevis oocytes, mRNA injected
Text: as §1, §2, §3, §4

α1β1R41N GABAA receptors = biological target: T4, α1β1R41N GABAA receptors (Rattus norvegicus, UniProt P15431+P62813, R66N); assay: Two electrode voltage clamp in Xenopus laevis oocytes, mutant α1β1R41N; settings: read-out: % of control current at EC3-5
T4 construct: expressed in transfected cells; host or cells: Xenopus laevis oocytes, mRNA injected
Text: as §1, §2, §3, §4

α1β3N41R GABAA receptors = biological target: T5, α1β3N41R GABAA receptors (Rattus norvegicus, UniProt P62813+P63079, N66R); assay: Two electrode voltage clamp in Xenopus laevis oocytes, mutant α1β3N41R; settings: co-applied with GABA EC3-5, read-out: EC50 values for the mutated receptors
T5 construct: expressed in transfected cells; host or cells: Xenopus laevis oocytes, mRNA injected
Text: as §1, §2, §3, §4

α1β1γ1 GABAA receptors = biological target: T6, α1β1γ1 GABAA receptors (Rattus norvegicus, UniProt P15431+P62813); assay: Two electrode voltage clamp in Xenopus laevis oocytes, α1β1γ1
T6 construct: expressed in transfected cells; host or cells: Xenopus laevis oocytes, mRNA injected
Text: as §1, §2, §3, §4

α1β1δ GABAA receptors = biological target: T7, α1β1δ GABAA receptors (Rattus norvegicus, UniProt P15431+P62813); assay: Two electrode voltage clamp in Xenopus laevis oocytes, α1β1δ
T7 construct: expressed in transfected cells; host or cells: Xenopus laevis oocytes, mRNA injected
Text: as §1, §2, §3, §4

T6 sequence (P62813 28-455): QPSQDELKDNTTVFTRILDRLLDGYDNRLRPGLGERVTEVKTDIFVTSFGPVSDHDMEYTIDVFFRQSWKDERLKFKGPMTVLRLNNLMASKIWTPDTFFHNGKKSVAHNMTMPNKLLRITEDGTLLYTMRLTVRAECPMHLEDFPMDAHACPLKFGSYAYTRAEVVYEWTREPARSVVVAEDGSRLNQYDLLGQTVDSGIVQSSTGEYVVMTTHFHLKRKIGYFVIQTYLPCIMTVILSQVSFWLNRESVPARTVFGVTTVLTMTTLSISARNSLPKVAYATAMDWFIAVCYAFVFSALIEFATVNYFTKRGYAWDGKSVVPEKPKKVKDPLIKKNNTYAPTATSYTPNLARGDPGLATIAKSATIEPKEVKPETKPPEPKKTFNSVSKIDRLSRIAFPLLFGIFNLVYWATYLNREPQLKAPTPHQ
T6 sequence (P15431 26-474): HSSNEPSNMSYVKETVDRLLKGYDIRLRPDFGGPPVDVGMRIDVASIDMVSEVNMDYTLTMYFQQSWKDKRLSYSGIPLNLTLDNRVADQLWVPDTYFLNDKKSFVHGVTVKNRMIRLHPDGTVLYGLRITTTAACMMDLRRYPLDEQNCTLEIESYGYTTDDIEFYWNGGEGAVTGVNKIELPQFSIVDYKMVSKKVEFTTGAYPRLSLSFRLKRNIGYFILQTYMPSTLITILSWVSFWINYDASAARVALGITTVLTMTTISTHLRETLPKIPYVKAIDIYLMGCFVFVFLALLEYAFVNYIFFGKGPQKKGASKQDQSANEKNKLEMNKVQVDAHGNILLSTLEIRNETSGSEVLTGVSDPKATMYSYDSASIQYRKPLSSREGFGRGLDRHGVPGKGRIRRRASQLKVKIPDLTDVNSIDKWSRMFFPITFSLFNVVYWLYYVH
T6 sequence (P23574 36-465 partner limits assumed): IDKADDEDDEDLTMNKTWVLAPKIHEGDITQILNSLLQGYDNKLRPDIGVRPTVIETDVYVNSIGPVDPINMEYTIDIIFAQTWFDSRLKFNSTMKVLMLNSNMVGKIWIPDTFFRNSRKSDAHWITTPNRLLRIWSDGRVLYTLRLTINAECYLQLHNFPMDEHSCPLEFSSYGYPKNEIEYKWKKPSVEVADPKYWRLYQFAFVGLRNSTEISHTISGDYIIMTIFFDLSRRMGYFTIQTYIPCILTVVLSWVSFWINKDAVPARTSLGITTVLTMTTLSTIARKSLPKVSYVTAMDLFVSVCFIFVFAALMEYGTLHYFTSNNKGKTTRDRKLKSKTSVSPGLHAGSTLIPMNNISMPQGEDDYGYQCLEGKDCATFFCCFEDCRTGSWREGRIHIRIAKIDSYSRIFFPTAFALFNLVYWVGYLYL
T3 sequence (P62813 28-455): as the sequence (P62813 28-455) above
T3 sequence (P63079 26-473): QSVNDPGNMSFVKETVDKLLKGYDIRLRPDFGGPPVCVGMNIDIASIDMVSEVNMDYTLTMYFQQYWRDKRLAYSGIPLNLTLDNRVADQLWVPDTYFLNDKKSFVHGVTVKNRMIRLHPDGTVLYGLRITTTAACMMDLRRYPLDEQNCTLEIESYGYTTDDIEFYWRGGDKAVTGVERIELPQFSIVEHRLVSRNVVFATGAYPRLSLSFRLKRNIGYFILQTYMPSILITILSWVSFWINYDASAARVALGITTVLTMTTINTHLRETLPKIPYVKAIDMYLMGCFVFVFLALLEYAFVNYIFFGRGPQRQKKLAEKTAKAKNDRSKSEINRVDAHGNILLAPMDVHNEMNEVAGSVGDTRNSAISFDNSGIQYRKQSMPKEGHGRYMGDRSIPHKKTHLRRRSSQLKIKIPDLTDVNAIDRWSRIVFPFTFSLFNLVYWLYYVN
T2 sequence (P62813 28-455): as the sequence (P62813 28-455) above
T2 sequence (P63138 25-474 limits assumed): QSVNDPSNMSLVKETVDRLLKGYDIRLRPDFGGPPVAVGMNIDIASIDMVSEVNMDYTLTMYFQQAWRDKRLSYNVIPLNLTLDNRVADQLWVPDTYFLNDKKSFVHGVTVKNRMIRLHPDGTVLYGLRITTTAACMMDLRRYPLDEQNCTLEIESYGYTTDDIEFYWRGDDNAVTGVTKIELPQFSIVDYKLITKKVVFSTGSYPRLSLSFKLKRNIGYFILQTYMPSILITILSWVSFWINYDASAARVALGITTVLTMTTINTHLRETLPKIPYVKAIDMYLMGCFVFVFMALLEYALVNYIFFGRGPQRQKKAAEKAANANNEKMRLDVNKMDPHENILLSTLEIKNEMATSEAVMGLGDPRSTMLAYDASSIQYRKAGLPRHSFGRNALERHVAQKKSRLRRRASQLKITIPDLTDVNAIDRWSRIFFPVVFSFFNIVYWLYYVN
T1 sequence (P62813 28-455): as the sequence (P62813 28-455) above
T1 sequence (P15431 26-474): as the sequence (P15431 26-474) above
T4 sequence (P62813 28-455): as the sequence (P62813 28-455) above
T4 sequence (P15431 26-474 R66N): as the sequence (P15431 26-474) above, with R41N counted along it
T7 sequence (P62813 28-455): as the sequence (P62813 28-455) above
T7 sequence (P15431 26-474): as the sequence (P15431 26-474) above
T7 sequence (P18506 17-449 partner limits assumed): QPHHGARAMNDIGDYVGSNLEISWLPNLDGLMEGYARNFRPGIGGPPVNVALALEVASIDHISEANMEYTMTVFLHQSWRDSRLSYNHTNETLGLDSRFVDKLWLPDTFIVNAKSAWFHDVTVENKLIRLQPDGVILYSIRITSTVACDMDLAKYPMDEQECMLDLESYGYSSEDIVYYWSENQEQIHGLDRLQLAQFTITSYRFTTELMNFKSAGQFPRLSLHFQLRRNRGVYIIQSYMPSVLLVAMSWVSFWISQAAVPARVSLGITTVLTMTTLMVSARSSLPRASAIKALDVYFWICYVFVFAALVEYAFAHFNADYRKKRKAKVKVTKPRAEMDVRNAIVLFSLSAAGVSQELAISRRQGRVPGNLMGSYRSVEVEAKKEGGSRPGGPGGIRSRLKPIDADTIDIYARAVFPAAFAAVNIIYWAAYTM
T5 sequence (P62813 28-455): as the sequence (P62813 28-455) above
T5 sequence (P63079 26-473 N66R): as the sequence (P63079 26-473) above, with N41R counted along it

COc1ccc2[nH]cc3c(=O)n(-c4ccc(N)cc4)nc-3c2c1 [Compound 6, 2-(4-Aminophenyl)-8-methoxy-2,5-dihydro-3H-pyrazolo[4,3-c]quinolin-3-one]
activity at 0.03 µM (α1β1 GABAA receptors; read-out: efficacy, % of control current (GABA EC3-5 = 100%), α1β1, 30 nM): 100%
activity at 0.3 µM (α1β1 GABAA receptors; read-out: efficacy, % of control current (GABA EC3-5 = 100%), α1β1, 300 nM): 153 ± 9.5%
Hill slope (nH) (α1β1 GABAA receptors; α1β1): 1.3±0.2
EC50 (α1β1 GABAA receptors; α1β1, co-applied with GABA EC3-5, read-out: EC50): 650 nM
activity at 0.03 µM (α1β2 GABAA receptors; 30 nM): 98 ± 3%
activity at 0.1 µM (α1β2 GABAA receptors; 100 nM): 99.5 ± 5.5%
activity at 1 µM (α1β2 GABAA receptors; 1 µM): 97.5 ± 9.5%
activity at 10 µM (α1β2 GABAA receptors; 10 µM): 118 ± 9%
activity at 30 µM (α1β2 GABAA receptors; 30 µM): 105 ± 8.3%
activity at 0.003 µM (α1β3 GABAA receptors; 3 nM): 100 ± 1.9%
activity at 0.1 µM (α1β3 GABAA receptors; 100 nM): 95 ± 5%
activity at 1 µM (α1β3 GABAA receptors; 1 µM): 97.5 ± 0.5%
current as % of control at 0.1 µM (α1β1R41N GABAA receptors; 100nM): 75 ± 1%
current as % of control at 0.3 µM (α1β1R41N GABAA receptors; 300nM): 90 ± 10%
current as % of control at 1 µM (α1β1R41N GABAA receptors; 1μM): 90 ± 15%
current as % of control at 3 µM (α1β1R41N GABAA receptors; 3µM): 90 ± 20%
current as % of control at 10 µM (α1β1R41N GABAA receptors; 10μM): 70 ± 10%
current as % of control at 30 µM (α1β1R41N GABAA receptors; 30μM): 115 ± 1%
EC50 (α1β3N41R GABAA receptors): 1870 nM

COc1ccc(-n2nc3c4cc(Cl)cc(C(C)(C)C)c4[nH]cc-3c2=O)cc1 [Compound 7, 6-(tert-Butyl)-8-chloro-2-(4-methoxyphenyl)-2,5-dihydro-3H-pyrazolo[4,3-c]quinolin-3-one]
shift of modulatory dose-response relative to parent compound 1 (α1β1 GABAA receptors; α1β1, α1β1γ1 and α1β1δ receptors (Fig. 6), versus compound 1): approximately twenty-fold right shift
EC50 (α1β1γ1 GABAA receptors): 21000 nM
activity at 0.003 µM (α1β1γ1 GABAA receptors; read-out: efficacy, % of control current (GABA EC3-5 = 100%), α1β1γ1, 3 nM): 105.1 ± 0.7%
activity at 0.01 µM (α1β1γ1 GABAA receptors; read-out: efficacy, % of control current (GABA EC3-5 = 100%), α1β1γ1, 10 nM): 106 ± 1.9%
activity at 0.03 µM (α1β1γ1 GABAA receptors; read-out: efficacy, % of control current (GABA EC3-5 = 100%), α1β1γ1, 30 nM): 108 ± 1.4%
activity at 0.1 µM (α1β1γ1 GABAA receptors; read-out: efficacy, % of control current (GABA EC3-5 = 100%), α1β1γ1, 100 nM): 112 ± 0.9%
activity at 1 µM (α1β1γ1 GABAA receptors; read-out: efficacy, % of control current (GABA EC3-5 = 100%), α1β1γ1, 1 µM): 121 ± 3.2%
activity at 3 µM (α1β1γ1 GABAA receptors; read-out: efficacy, % of control current (GABA EC3-5 = 100%), α1β1γ1, 3 µM): 159 ± 3.2%
activity at 10 µM (α1β1γ1 GABAA receptors; read-out: efficacy, % of control current (GABA EC3-5 = 100%), α1β1γ1, 10 µM): 175 ± 13.6%
Hill slope (nH) (α1β1γ1 GABAA receptors; α1β1γ1): 0.6±0.2
EC50 (α1β1δ GABAA receptors; read-out: EC50): 2300 nM
activity at 0.003 µM (α1β1δ GABAA receptors; read-out: efficacy, % of control current (GABA EC3-5 = 100%), α1β1δ, 3 nM): 100 ± 0.7%
activity at 0.01 µM (α1β1δ GABAA receptors; read-out: efficacy, % of control current (GABA EC3-5 = 100%), α1β1δ, 10 nM): 106 ± 2.8%
activity at 0.03 µM (α1β1δ GABAA receptors; read-out: efficacy, % of control current (GABA EC3-5 = 100%), α1β1δ, 30 nM): 108 ± 5.2%
activity at 0.1 µM (α1β1δ GABAA receptors; read-out: efficacy, % of control current (GABA EC3-5 = 100%), α1β1δ, 100 nM): 128 ± 3.4%
activity at 0.3 µM (α1β1δ GABAA receptors; read-out: efficacy, % of control current (GABA EC3-5 = 100%), α1β1δ, 300 nM): 163 ± 6.2%
activity at 1 µM (α1β1δ GABAA receptors; read-out: efficacy, % of control current (GABA EC3-5 = 100%), α1β1δ, 1 µM): 381 ± 48.7%
activity at 3 µM (α1β1δ GABAA receptors; read-out: efficacy, % of control current (GABA EC3-5 = 100%), α1β1δ, 3 µM): 636 ± 116%
activity at 10 µM (α1β1δ GABAA receptors; read-out: efficacy, % of control current (GABA EC3-5 = 100%), α1β1δ, 10 µM): 885 ± 293%
Hill slope (nH) (α1β1δ GABAA receptors; α1β1δ): 1.1±0.8
